Assay [1] concerns spontan hypertensiven Ratten. Description: Systolic blood pressure and heart rate in conscious spontaneously hypertensive rats (tail sphygmomanometry), oral dosing. The format is in vivo. The settings on record: for Abnahme des Bludrucks: second day, 2 hours after dosing; for antihypertensive Wirkung / bradycardische (d.h. die Herzfrequenz herabsetzende) Wirkung: low doses of 10 mg/kg or below. An excerpt: Die in vivo blutdrucksenkende Wirkung wird entweder direkt mit einem Katheter, der z.B. in die fumurale Arterie eines Hundes eingeführt ist, oder indirekt durch Sphygmomanometrie am Rattenschwanz, und einem Uebertragungsinstrument registriert. Der Bludruck wird vor und nach der Verabreichung des Wirkstoffes in mmHg bestimmt.
So kann die antihypertensive Wirkung und die Reduktion der Herzfrequenz bei spontan hypertensiven Ratten nachgewiesen werden, indem man indirekt durch Sphygmomanometrie am Rattenschwanz den systolischen Druck misst. Wache Ratten werden einzeln in Käfige gesperrt, welche sich in einem angenehm warmen Raum befinden. Nachdem Kontrollwerte für Blutdruck und Herzfrequenz gemessen words-n sind, werden die Testverbindungen oral einmal täglich an 2 oder 4 aufeinanderfolgenden Tagen verabreicht. Der Blutdruck wird gewöhnlich 24 Stunden nach der ersten Dosis und dann jeweils 2,0, 4,0 und 24 Stunden nach jeder täglichen Dosis bestimmt, und die Wirkung mit der bei solchen Ratten verglichen, die mit dem Trägermaterial behandelt worden sind.
Gemäss der vorher beschriebenen Methode werden wache Ratten einzeln in Käfige gestellt. Zuerst werden die Kontrollwerte des Blutdrucks ermittelt und dann die einzelnen Testverbindungen einmal täglich, an zwei aufeinanderfolgenden Tagen, oral verabreicht.

In assay [2] the test system is renal hypertensiven Hunden. Description: Arterial pressure and heart rate in conscious renal hypertensive dogs, oral dosing. In kind it is in vivo, Hunde. Particulars: oral dose 10 mg/kg. An excerpt: Die antihypertensive und bradycardische Wirkung wird ebenso an wachen, chronisch hypertensiven Hunden untersucht; die Hypertension wird dabei durch eine Schwächung der Nierenfunktion erzeugt. Der arterielle Druck wird durch direkte perkutane Punktion der femuralen Arterie, unter Verwendung einer Nadel, die an ein Uebertragungsinstrument angeschlossen ist, registriert. Nach der Aufnahme von Kontrolldaten werden die Hunde oral einmal täglich, 4 Tage lang, mit Kapseln, welche die Testverbindung enthalten, behandelt. Der Blutdruck und die Herzfrequenz werden jeweils 1,5, 3, 6 und 24 Stunden nach der täglichen Dosis bestimmt und die Ergebnisse mit den vor der Behandlung erhaltenen Kontrollwerten verglichen.

Assay [3] has as its target β-adrenergischen Rezeptoren. Description: β-receptor binding test in vitro: inhibition of 3H-dihydroalprenolol binding to brain membrane preparation. The settings on record: calf brain caudate membranes; 10 min at 37°C; determined graphically; read-out: IC50 (Hemmung der spezifischen Bindung von 1,0 nM 3H-Dihydroalprenolol). Also on record: species or system Kalb. An excerpt:
Die β-adrenergische Rezeptorbindungseigenschaften, welche β-adrenergische regulierende, z.B. blockierende Wirkung der genannten neuen Verbindungen anzeigen, werden in einem Test der β-Rezeptorbindung in vitro nach einer Modifikation des Verfahrens bestimmt, wie es in Life Sciences 17, 993 (1975) beschrieben ist.
^3H-Dihydroalprenolol wird spezifisch von Gehirnmembran-Präparaten gebunden und diese Wirkung wird durch bekannte Agonisten und Antagonisten von β-adrenergischen Rezeptoren gehemmt.
Beim Bindungstest werden 2 ml-Proben der Suspension eines Membranpräparates (welches etwa 20 mg Kalbshirn-Caudaten entspricht) in eisgekühlte Reagenzgläser gegeben, welche ^3H-Dihydroalprenolol mit oder ohne Testverbindung, frisch gelöst in 0,1% Ascorbinsäure, enthalten. Die Endkonzentration von ^3H-Dihydroalprenolol ist 1,0 nM. Die Testverbindungen werden innerhalb einer weiten Konzentrationsreihe geprüft. Die Reagenzgläser werden 10 Minuten bei 37°C inkubiert, und die Suspensionen dann sofort unter Vakuum durch Fiberglasfilter filtriert. Die Filter werden mit 15 ml kalter 50 mM Tris-HCi (pH 7,9 bei 25°C) gewaschen, zusammen mit 12 ml Szintillationslösung in Szintillationsampullen gegeben, zunächst 90 Minuten geschüttelt und dann mit dem Zählrohr auf Radioaktivität untersucht.
Die IC50 Werte (welche die Konzentration der Testverbindungen angeben, die nötig ist, um die spezifische Bindung der 1,0 nM ^3H-Dihydrcal- prenolol-Lösung um 50% zu verringern) werden graphisch bestimmt.
Die erfindungsgemässen Verbindungen hemmen die β-Rezeptorbildung des Dihydroalprenolols mit IC50 Werten von […] oder darunter. Beispielsweise weisen die Verbindungen der Beispiele 1, 2a, 3b und 3c IC50-Werte von etwa […] auf.

In a further assay the test system is normotensiven Kaninchen. The assay can be described thus: Intraocular pressure reduction in normotensive rabbits, topical application (anti-glaucoma effect). In kind it is in vivo. The method, then: Die Anticlaucoma-Wirkung der erfindungsgemässen Verbindungen ist an der intraokularen Druckverminderung abzulesen, die an Säugetieren, z.B. bei normotensiven Kaninchen, im wesentlichen nach der von D.E. Potter und J.M. Rowland in Experimental Eye Research 27, 615-625, (1978) beschriebenen Methodik nachgewiesen werden kann. Die intraokulare Druckverminderung wird wie folgt bestimmt: 2 x 50 µl einer Lösung der Testverbindung in sterilisiertem Wasser von unterschiedlicher Konzentration werden bei männlichen, neuseeländischen Albinokaninchen, die 3-4 kg wiegen, jeweils auf ein Auge appliziert, und 2 x 50 µl des Trägermaterials werden zur Kontrolle auf das kontralaterale Auge appliziert. Der intraokulare Druck (in mm Hg) in jedem Auge wird direkt vor der Behandlung tonometrisch gemessen, und dann 1,2 bzw. 3 Stunden nach der Verabreichung. Es wird der Unterschied des intraokularen Druckes zwischen behandeltem Auge und Kontrollauge bestimmt.
Beispielsweise zeigen die erfindungsgemässen Verbindungen der Beispiele 1 und 2a, bei einer Konzentration von etwa 20 bzw.

Setting [4] is: 50 mg/kg p.o. once daily for 2 days.

With `O=C1NCCN1[C@H]1CC[C@@H](NCC(O)COc2ccccc2-n2cccc2)CC1` (stereo partly drawn) [Beispiel 3h], the “Abnahme des Bludrucks” value in assay [1] (setting [4]) is reported as -68.0 mm Hg.
Consider `N#Cc1ccccc1OCC(O)CN[C@H]1CC[C@@H](N2CCNC2=O)CC1` (stereo partly drawn) [Beispiel 3f], for which, in assay [1] (setting [4]), the “Abnahme des Bludrucks” value is recorded as -11.0 mm Hg.
As for `O=C1NCCN1[C@H]1CC[C@@H](NCC(O)COc2ccccc2OCC2CC2)CC1` (mixture of isomers) [Beispiel 3m], in assay [2], the Herzfrequenz entry was “herabsetzen” and the “mittlerer arterieller Druck” value is “ununterbrochene Verringerung”. Moreover, in assay [1], the “antihypertensive Wirkung” value is reported as “deutliche” and the “bradycardische (d.h. die Herzfrequenz herabsetzende) Wirkung” value (shortened to “bradycardische”) was “deutliche”.
As usually defined, the IC50 is the concentration that gives 50% inhibition. Turning to `C#CCOc1ccccc1OCC(O)CN[C@H]1CC[C@H](N2CCNC2=O)CC1` (mixture of isomers) [Beispiel 3c], the IC50 in assay [3] was around 4 nM. In assay [1] (setting [4]), the “Abnahme des Bludrucks” value is given as -30.0 mm Hg.
Take `C#CCOc1cccc(OCC(O)CN[C@H]2CC[C@@H](N3CCNC3=O)CC2)c1` (stereo partly drawn) [Beispiel 3d]: the “Abnahme des Bludrucks” value in assay [1] (setting [4]) is -52.3 mm Hg.
As for `C=CCOc1ccccc1OCC(O)CN[C@H]1CC[C@@H](N2CCNC2=O)CC1` (mixture of isomers) [Beispiel 1, cis-1-(4-[3-(o-Allyloxyphenoxy)-2-hydroxypropylamino]-cyclohexyl)-2-imidazolidinon-hemifumarat], in the assay with normotensiven Kaninchen (concentration about 20 nM), the “Verminderung des intraokularen Druckes” value is reported as “deutliche Verminderung”. Besides, in assay [2], the Herzfrequenz result was “herabsetzen” and the “mittlerer arterieller Druck” value is on record as “ununterbrochene Verringerung”. Moreover, the IC50 in assay [3] was around 80 nM. Moreover, the “Abnahme des Bludrucks” value in assay [1] (setting [4]) is given as -79.3 mm Hg. In assay [1], the “antihypertensive Wirkung” value is “deutliche” and the “bradycardische” value is recorded as “deutliche”.
As for `N#Cc1ccccc1OCC(O)CN[C@H]1CC[C@H](N2CCNC2=O)CC1` (stereo partly drawn) [Beispiel 3g], the “Abnahme des Bludrucks” value in assay [1] (setting [4]) was -33.0 mm Hg.
As for `COCCc1ccc(OCC(O)CN[C@H]2CC[C@@H](N3CCNC3=O)CC2)cc1` (stereo partly drawn) [Beispiel 3k], the “Abnahme des Bludrucks” value in assay [1] (setting [4]) is recorded as -17.6 mm Hg.
The same measure, in the same setting: with `COc1ccccc1OCC(O)CN[C@H]1CC[C@@H](N2CCNC2=O)CC1` (stereo partly drawn) [Beispiel 3a] the figure was -39.3 mm Hg.
On to `O=C1NCCN1[C@H]1CC[C@@H](NC[C@H](O)COc2ccccc2OCC2CC2)CC1` [Beispiel 2a, (S)-cis-1-(4-[3-(o-Cyclopropylmethoxyphenoxy)-2-hydroxypropylamino]-cyclohexyl)-2-imidazolidinon-hemifumarat], for which the “Verminderung des intraokularen Druckes” value with normotensiven Kaninchen (concentration about 6,4 nM) is on record as “deutliche Verminderung”. Also, the half-maximal inhibitory concentration (IC50) in assay [3] is around 5 nM. Also, in assay [1] (30 mg/kg p.o. once daily for 2 days), the “Abnahme des Bludrucks” value is -75.5 mm Hg. For the same compound, in assay [1], the “antihypertensive Wirkung” value is on record as “deutliche” and the “bradycardische” value is “deutliche”.

Source of the values: EP0096006A2, “3-(Ureidocyclohexylamino)-propane-1,2-diol derivatives, process for their preparation, pharmaceutical preparations containing these compounds and their therapeutical use” (CIBA-GEIGY AG, priority 1982, dated 1983).
